System: severe wrinkling on their face
Experiment: Topical application of COL-118 to facial wrinkles (Example 18)
Assay type: in vivo, human
Conditions: middle-aged person, topical 0.2% COL-118
Protocol: A middle-aged person has severe wrinkling on their face. They apply 0.2% COL-118 (an α2 adrenergic receptor agonist supplied by CollaGenex Pharmaceuticals, Inc., Newtown, Pa.). Wrinkling is noticeably diminished within 5 minutes by casual observation. After about 10 minutes, nearly all the wrinkles are gone. The effect lasts at least 8 hr.

Compound: Brc1c(NC2=NCCN2)ccc2nccnc12 [COL-118]
- Duration of the wrinkle-reducing effect: at least 8 hr
- Time after which nearly all the wrinkles are gone: about 10 minutes
- Time until wrinkling is noticeably diminished (casual observation): ≤ 5 min
